Results: patent US5496533A, “Rhenium complexes” (Australian Nuclear Science & Technology Organisation, priority 1992, dated 1996)
Read-outs that look alike come from different tables or passages of the source.

Test: Hygroscopic nature of the HCl salts
Assay type: physicochemical
Description: To a solution of N-methyl-bicyclic compound (2) (10 mmole) in dry THF (100-150ml) was added a large excess of LiAlH4 (30 mmole), and the mixture was refluxed for about 24 hr. The reaction mixture was quenched with […]. NH4 Cl, and filtered. The contents of the funnel were washed with 100ml of CHCl3 twice and the combined filtrate of THF and CHCl3 was evaporated to dryness under reduced pressure. The residue was dissolved in ether (100 ml), and the hydrochloride salt was made by addition of ethanol--HCl and removal of organic solvent under reduced pressure.
To a solution of N-acyl-bicyclic compound (3) (10 mmole) in dry tetrahydrofuran (THF) (100-150ml) was added a large excess of LiAlH4 (50 mmole), and the mixture was refluxed for about 24 hr. The reaction mixture was quenched with satd. NH4 Cl, and filtered. The contents of the funnel were washed with 100 ml of CHCl3 twice and the combined filtrate of THF and CHCl3 was evaporated to dryness under reduced pressure. Water was added (100 ml), and the pH was adjusted to 3.0 with concentrated HCl. The mixture was extracted with diethyl ether (80 ml/extraction) to remove ether soluble impurities. These ether solutions were discarded. The pH was then adjusted to 8.0 and extracted with fresh ether. These ether solutions were dried (Na2 SO4), filtered and evaporated under reduced pressure. […]

## CN(CCNCC(C)(C)S)CC(C)(C)S [N-methyl compound (4), 2,2,9,9-pentamethyl-4-N-methyl-4,7-diaza-1,10-decanedithiol]
  hygroscopic nature of HCl salts: very hygroscopic
Listed as 4(N--Me)
  hygroscopic nature of HCl salts: strong hygroscopic nature
